These results are taken from patent publication US20230212202A1, “TREATMENT OF MGMT DEFICIENT CANCER WITH 2-FLUOROETHYL-SUBSTITUTED NITROSOUREAS AND OTHER COMPOUNDS” (YALE UNIVERSITY, priority 2021, published 2023).

In one data set the test system is LN229 MGMT-/MMR+ cells. Kind of data set: IR alkaline comet assay. The class given is cell-based, human.
The next data set relates to LN229 MGMT-/MMR- cells. Put plainly: IR alkaline comet assay. The class given is cell-based, human. The note with it: 200 µM, 2-24 h.
Data set [1] deals with γH2AX, 53BP1 and pRPA foci in LN229 MGMT+/-, MMR+/- cells. Kind of data set: Immunofluorescence foci assays. The format is cell-based, human. The note with it: 20 µM. As to the method: Immunofluorescence Foci Assays. High-throughput immunofluorescence foci assays were performed at the Yale Center for Molecular Discovery (YCMD). Cells were seeded at 2000 cells/well in black polystyrene flat bottom 384-well plates (Greiner Bio-One) and allowed to adhere overnight. Compound addition was performed utilizing a Labcyte Echo 550 liquid handler (Beckman Coulter), with 6 replicates per test condition and 12 replicates per control condition. Following drug incubation, cells were fixed and stained for phospho-SER139-H2AX (yH2AX), 53BP1, or phospho-SER33-RPA2 (pRPA) as follows.
γH2AX protocol: Cells were fixed with 4% paraformaldehyde in 1X PBS for 15 min, washed twice with 1X PBS, incubated in extraction buffer (0.5% Triton X-100 in 1X PBS) for 10 min, washed twice with 1X PBS, and incubated in blocking buffer (Blocker Casein in PBS, Thermo Scientific + 5% goat serum, Life Technologies) for 1 h. Mouse anti-phospho-histone H2A.X (Ser139) antibody (clone JBW301, Millipore, 05-636) was added 1/1000 in blocking buffer at 4° C. overnight. After washing with 1X PBS, cells were incubated with goat anti-mouse IgG (H+L) highly cross-adsorbed secondary antibody, Alexa Fluor 647 (Invitrogen, A-21236) 1/500 and with 1 µg/mL Hoechst nucleic acid dye in blocking buffer for 2 h, and then washed with 1X PBS. […]

Data set [2] deals with LN229 MGMT+/-, MMR+/- cells. Put plainly: Cell cycle analysis. The format is cell-based, human. Particulars: 20 µM. As to the method:
Cell Cycle Analysis. Cell cycle analysis was performed using integrated Hoechst nucleic acid dye fluorescence intensity as previously described (51). Briefly, integrated Hoechst fluorescence intensity was log2 transformed and histograms from DMSO-treated cells were used to identify the centers of the 2 N and 4 N DNA peaks. These values were used to normalize the 2 N DNA peak to 1 and the 4 N DNA peak to 2. Cells were then classified by normalized log2 DNA content as G1 (0.75-1.25), S (1.25-1.75), or G2 (1.75-2.5) phase cells. The percentage of cells within each phase of the cell cycle was determined for each treatment condition. The three sets of Hoechst-stained cells corresponding to the three separate DNA foci stains were treated as three independent analyses.

For data set [3], the system named is LN229 MGMT+/-, MMR+/- cells. Kind of data set: Micronuclei analysis. The format is cell-based, human. The note with it: 20 µM, 48 h. The source says: Micronuclei Analysis. An automated image analysis pipeline was developed by YCMD using InCell Analyzer software to quantify micronuclei formation. Nuclei and micronuclei were segmented based on Hoechst nucleic acid dye staining channel. A perinuclear margin was applied around the nuclei to approximate the extent of the cytoplasm and identify micronuclei associated with the parent nucleus. Cells with nuclei associated with at least 1 micronucleus were considered positive.

Data set [4] relates to PD20 cells, FANCD2-/- or +FANCD2. Kind of data set: Short-term viability assay. The format is cell-based, human. The note with it: PD20 FANCD2-/- vs +FANCD2.
Data set [5] relates to LN229 MGMT-/MMR- intracranial tumors. Kind of data set: Intracranial tumor model. The class given is in vivo, mouse. The note with it: 25 mg/kg IP M-F × 1 week.
A short description of data set [6]: Maximum tolerated dose study in healthy mice. The class given is in vivo, mouse. The method, then:
Healthy mice were treated with escalating doses of KL-50 (4a) (0, 25, 50, 100, and 200 mg/kg × 1 dose), and monitored over time for changes in both weights and hematologic profiles. Mice in the higher dosage groups (100 or 200 mg/kg) experienced a greater than 10% weight loss after treatment administration, which regressed to baseline at the end of one week (FIG. 6B). […] As the main dose limiting systemic toxicity of TMZ (1a) is myelosuppression, complete blood counts were measured for all mice on day 0 before treatment and subsequently on day 7 after drug administration.

Data set [7] relates to LN229 MGMT-/MMR+ flank tumors.

Consider `NC(=O)c1ncn2c(=O)n(CCF)nnc12` [KL-50], for which the “IR-induced comet tail (ICL detection)” value in the data set with LN229 MGMT-/MMR+ cells (200 µM, 24 h, 10 Gy) was “reduced the %DNA in the tail to levels similar to those seen for 0.1 µM MMC”. For the same compound, the “comet tailing in the absence of IR” value in the data set with LN229 MGMT-/MMR+ cells (TMZ, KL-50 200 µM, MMC 0.1 or 50 µM) is “induced tailing”. Further, the “DNA damage in unirradiated samples, time course” value with LN229 MGMT-/MMR- cells (0 Gy) is listed as “maximal damage at 2 h”. Moreover, the “DNA mobility after IR, time course” value in the data set on LN229 MGMT-/MMR- cells (10 Gy) was “time-dependent decrease in DNA mobility”. Besides, the “γH2AX, 53BP1, pRPA foci formation” value in data set [1] (2 to 48 h) is “maximal foci response at 48 h, specifically in MGMT- cells and irrespective of MMR status”. Besides, in data set [1] (48 h), the “DDR foci across cell cycle phases” value is “foci formation primarily in the S- and G2-phases”. Also, the G2 arrest result is “moderate G2 arrest” in data set [2] (MGMT+/MMR+ cells), “increasing G2 arrest on progression from 24 to 48 h” in data set [2] (MGMT-/MMR+ cells) and “attenuated G2 arrest” in [2] (MGMT-/MMR- cells). Moreover, in data set [3], the micronuclei formation entry is “significant increase in micronuclei”. In addition, the “sensitivity of FANCD2-deficient cells” value in [4] is “hypersensitive”. In data set [5], the intracranial tumor growth result is reported as “effective”. For the same compound, the tolerability entry in data set [6] (0, 25, 50, 100, 200 mg/kg × 1 dose) was “well-tolerated”. For the same compound, in [6] (200 mg/kg), the “mice observably ill warranting euthanasia” value is listed as “Two of three mice”. Also, the “weight loss after treatment administration” value in data set [6] (100 or 200 mg/kg, regressed to baseline at one week) is given as “greater than 10%”. Further, the complete blood counts entry in [6] (day 7, all cohorts) is reported as “within normal physiological ranges”. In addition, in [7] (5 mg/kg MWF × 3 weeks, P.O.), the tumor growth result is reported as “statistically non-inferior to TMZ (1a)”. The body weight result in data set [7] (LN229 flank tumor experiments, compared to TMZ or control) is “no significant changes in body weight”.
